Source: the supplement of paper PMC6045584
± gives the standard deviation of the averaged measurements.

How the values were obtained:
[1] = compound: T1, O=C(O)C1(C(=O)O)CCC1.[NH2-].[NH2-].[Pt+2] [CARBOPLATIN]; test: area under dose-response curve of surviving fraction (unscaled, Aref=0) (surviving fraction x log10(nM)); higher = more resistant; conditions: exposure time: 5 days; dose range 0.5-1000 nM
Method in brief: (§1)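 Inhibitor was applied to tumour cell lines at eight concentrations (0.5 to 1000 nM) for five days in 384-well plates. Luminescence from CellTiter-Glo, scaled to DMSO-only wells, gave surviving fractions in three screens per line, and these were fitted by 3-parameter logistic regression with the drc R package. The area under the curve is an unscaled activity area. Aref was 0, and dose was on a log10 scale.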

[2] = compound: T2, CC(=O)O[C@H]1C(=O)[C@@]2(C)[C@H]([C@H](OC(=O)c3ccccc3)[C@]3(O)C[C@H](OC(=O)[C@H](O)[C@@H](NC(=O)c4ccccc4)c4ccccc4)C(C)=C1C3(C)C)[C@]1(OC(C)=O)CO[C@@H]1C[C@@H]2O [PACLITAXEL]; test: as above; conditions: exposure time: 5 days; dose range 0.5-1000 nM
Method in brief: as §1

[3] = compound: CC(=O)NCC(=O)N1[C@@H]2CC[C@H]1c1ccc(Nc3ncc(C(F)(F)F)c(NC4CCC4)n3)cc12; test: as above; conditions: exposure time: 5 days; dose range 0.5-1000 nM
Method in brief: as §1

[4] = compound: T3, CC[C@@]1(O)C(=O)OCc2c1cc1n(c2=O)Cc2cc3ccccc3nc2-1 [CAMPTOTHECIN]; test: as above; conditions: exposure time: 5 days; dose range 0.5-1000 nM
Method in brief: as §1

[5] = compound: T4, COCC[n+]1c2c(n(Cc3cnccn3)c1C)C(=O)c1ccccc1C2=O [YM155]; test: as above; conditions: exposure time: 5 days; dose range 0.5-1000 nM
Method in brief: as §1

[6] = compound: T5, Cc1ccc(-c2cc(C(F)(F)F)nn2-c2ccc(S(N)(=O)=O)cc2)cc1 [CELECOXIB]; test: as above; conditions: exposure time: 5 days; dose range 0.5-1000 nM
Method in brief: as §1

[7] = compound: CC(=O)c1c(C)c2cnc(Nc3ccc(N4CCNCC4)cn3)nc2n(C2CCCC2)c1=O; test: as above; conditions: exposure time: 5 days; dose range 0.5-1000 nM
Method in brief: as §1

[8] = compound: T6, C[C@]1(O)C[C@@H](c2nc(-c3ccc4ccc(-c5ccccc5)nc4c3)c3c(N)nccn32)C1 [OSI-906]; test: as above; conditions: exposure time: 5 days; dose range 0.5-1000 nM
Method in brief: as §1

[9] = compound: T1, CARBOPLATIN; test: surviving fraction relative to DMSO-only wells; higher = less growth inhibition; conditions: exposure time: 5 days
Method in brief: (§2)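 Log-phase tumour cells were seeded at 250–500 per well in 384-well plates and, from 24 hours after seeding, exposed continuously for five days to inhibitors at 0.5, 1, 5, 10, 50, 100, 500 and 1000 nM. Surviving fraction is CellTiter-Glo luminescence normalised to the median of DMSO-only wells. Luminescence was measured after 10 minutes at room temperature, and only lines screened three times with replicate Pearson r >0.7 and median Z' >0.3 were kept.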

[10] = compound: T2, PACLITAXEL; test: as above; conditions: exposure time: 5 days
Method in brief: as §2

[11] = compound: CC(=O)NCC(=O)N1[C@@H]2CC[C@H]1c1ccc(Nc3ncc(C(F)(F)F)c(NC4CCC4)n3)cc12; test: as above; conditions: exposure time: 5 days
Method in brief: as §2

[12] = compound: T3, CAMPTOTHECIN; test: as above; conditions: exposure time: 5 days
Method in brief: as §2

[13] = compound: T4, YM155; test: as above; conditions: exposure time: 5 days
Method in brief: as §2

[14] = compound: T5, CELECOXIB; test: as above; conditions: exposure time: 5 days
Method in brief: as §2

[15] = compound: COc1cc2ncnc(Nc3ccc(F)c(Cl)c3)c2cc1OCCCN1CCOCC1 [GEFITINIB]; test: as above; conditions: exposure time: 5 days
Method in brief: as §2

[16] = compound: CC(=O)c1c(C)c2cnc(Nc3ccc(N4CCNCC4)cn3)nc2n(C2CCCC2)c1=O; test: as above; conditions: exposure time: 5 days
Method in brief: as §2

[17] = compound: T6, OSI-906; test: as above; conditions: exposure time: 5 days
Method in brief: as §2

U2OS BONE
area under dose-response curve [1]: 3.52
area under dose-response curve [2]: 1.15
area under dose-response curve [3]: 2.43
area under dose-response curve [4]: 2.05
area under dose-response curve [5]: 1.16
area under dose-response curve [6]: 3.42
area under dose-response curve [7]: 3.41
area under dose-response curve [8]: 3.08
surviving fraction ([9]; 0.5 nM): 1.04 ± 0.044
surviving fraction ([9]; 1 nM): 1.05 ± 0.046
surviving fraction ([9]; 5 nM): 1.07 ± 0.033
surviving fraction ([9]; 10 nM): 1.1 ± 0.028
surviving fraction ([9]; 50 nM): 1.1 ± 0.049
surviving fraction ([9]; 100 nM): 1.077 ± 0.0098
surviving fraction ([9]; 500 nM): 1.06 ± 0.016
surviving fraction ([9]; 1000 nM): 1.05 ± 0.032
surviving fraction ([10]; 0.5 nM): 1 ± 0.037
surviving fraction ([10]; 1 nM): 0.985 ± 0.016
surviving fraction ([10]; 5 nM): 0.488 ± 0.011
surviving fraction ([10]; 10 nM): 0.271 ± 0.012
surviving fraction ([10]; 50 nM): 0.106 ± 0.0087
surviving fraction ([10]; 100 nM): 0.0817 ± 0.0093
surviving fraction ([10]; 500 nM): 0.0593 ± 0.0085
surviving fraction ([10]; 1000 nM): 0.059 ± 0.001
surviving fraction ([11]; 0.5 nM): 1.07 ± 0.016
surviving fraction ([11]; 1 nM): 1.02 ± 0.04
surviving fraction ([11]; 5 nM): 1.04 ± 0.061
surviving fraction ([11]; 10 nM): 1.01 ± 0.014
surviving fraction ([11]; 50 nM): 0.725 ± 0.015
surviving fraction ([11]; 100 nM): 0.483 ± 0.0044
surviving fraction ([11]; 500 nM): 0.314 ± 0.016
surviving fraction ([11]; 1000 nM): 0.225 ± 0.011
surviving fraction ([12]; 0.5 nM): 0.924 ± 0.055
surviving fraction ([12]; 1 nM): 0.943 ± 0.054
surviving fraction ([12]; 5 nM): 0.948 ± 0.025
surviving fraction ([12]; 10 nM): 0.733 ± 0.03
surviving fraction ([12]; 50 nM): 0.567 ± 0.011
surviving fraction ([12]; 100 nM): 0.464 ± 0.0056
surviving fraction ([12]; 500 nM): 0.121 ± 0.013
surviving fraction ([12]; 1000 nM): 0.0677 ± 0.0097
surviving fraction ([13]; 0.5 nM): 1.02 ± 0.026
surviving fraction ([13]; 1 nM): 1.005 ± 0.0056
surviving fraction ([13]; 5 nM): 0.616 ± 0.036
surviving fraction ([13]; 10 nM): 0.304 ± 0.043
surviving fraction ([13]; 50 nM): 0.033 ± 0.001
surviving fraction ([13]; 100 nM): 0.023
surviving fraction ([13]; 500 nM): 0.021
surviving fraction ([13]; 1000 nM): 0.0247 ± 0.00058
surviving fraction ([14]; 0.5 nM): 0.98 ± 0.055
surviving fraction ([14]; 1 nM): 1.03 ± 0.032
surviving fraction ([14]; 10 nM): 1.03 ± 0.048
surviving fraction ([14]; 50 nM): 1.05 ± 0.032
surviving fraction ([14]; 100 nM): 1.09 ± 0.016
surviving fraction ([14]; 500 nM): 1.01 ± 0.016
surviving fraction ([14]; 1000 nM): 1 ± 0.043
surviving fraction ([15]; 0.5 nM): 1.03 ± 0.057
surviving fraction ([15]; 1 nM): 0.9987 ± 0.0084
surviving fraction ([15]; 5 nM): 1.03 ± 0.015
surviving fraction ([15]; 10 nM): 0.989 ± 0.0078
surviving fraction ([15]; 50 nM): 1.04 ± 0.027
surviving fraction ([15]; 100 nM): 1.04 ± 0.031
surviving fraction ([15]; 500 nM): 0.959 ± 0.0095
surviving fraction ([15]; 1000 nM): 0.98 ± 0.048
surviving fraction ([16]; 0.5 nM): 1.02 ± 0.044
surviving fraction ([16]; 1 nM): 1.01 ± 0.04
surviving fraction ([16]; 5 nM): 1.06 ± 0.021
surviving fraction ([16]; 10 nM): 1.06 ± 0.033
surviving fraction ([16]; 50 nM): 1.06 ± 0.034
surviving fraction ([16]; 100 nM): 1.06 ± 0.033
surviving fraction ([16]; 500 nM): 0.979 ± 0.032
surviving fraction ([16]; 1000 nM): 0.981 ± 0.062
surviving fraction ([17]; 0.5 nM): 0.979 ± 0.038
surviving fraction ([17]; 1 nM): 0.949 ± 0.031
surviving fraction ([17]; 5 nM): 0.958 ± 0.013
surviving fraction ([17]; 10 nM): 0.939 ± 0.021
surviving fraction ([17]; 50 nM): 0.967 ± 0.038
surviving fraction ([17]; 100 nM): 0.914 ± 0.026
surviving fraction ([17]; 500 nM): 0.872 ± 0.026
surviving fraction ([17]; 1000 nM): 0.863 ± 0.026
